From ChEMBL document CHEMBL3885861, “Open TG-GATES”

Organism: Rattus norvegicus
Assay: Open TG-GATES - Regimen: Daily Repeat
Type: toxicity, organism-based, Sprague-Dawley
Parameters: regimen Daily Repeat, gender Male, age 6 weeks
Conditions: in vivo, po, 50 mg/kg, route gavage, dose level Middle; for APTT / Bas / Eos / Fbg / Hb / Ht / Lym / MCH / MCHC / MCV / Mono / Neu / PT / Plat / RBC / Ret / WBC: tissue Blood; for KIDNEY_L / KIDNEY_R / KIDNEY_TOTAL: tissue Kidney; for LIVER: tissue Liver; for A/G / ALP / ALT / AST / BUN / CRE / Ca / Cl / DBIL / GLC / IP / K / LDH / Na / PL / RALB / TBIL / TC / TG / TP / gamma-GTP: tissue Plasma

CC(C)C(=O)Nc1ccc([N+](=O)[O-])c(C(F)(F)F)c1 [FLUTAMIDE]
TERMINAL_BW (72 h, time 3 day): 215.7 g
APTT (72 h, time 3 day): 18.3 s
Bas (72 h, time 3 day): 0%
Eos (72 h, time 3 day): 1.2%
Fbg (72 h, time 3 day): 217 mg/dL
Hb (72 h, time 3 day): 14.3 g/dL
Ht (72 h, time 3 day): 43.4%
Lym (72 h, time 3 day): 78%
MCH (72 h, time 3 day): 20.9 pg
MCHC (72 h, time 3 day): 32.9%
MCV (72 h, time 3 day): 63.5 fL
Mono (72 h, time 3 day): 2.6%
Neu (72 h, time 3 day): 17.4%
PT (72 h, time 3 day): 12.3 s
Plat (72 h, time 3 day): 115.2 x10_4/uL
RBC (72 h, time 3 day): 685 x10_4/ul
Ret (72 h, time 3 day): 4.1%
WBC (72 h, time 3 day): 77.6 x10_2/uL
KIDNEY_L (72 h, time 3 day): 0.9 g
KIDNEY_R (72 h, time 3 day): 1 g
KIDNEY_TOTAL (72 h, time 3 day): 1.9 g
LIVER (72 h, time 3 day): 11.1 g
A/G (72 h, time 3 day): 1.7
ALP (72 h, time 3 day): 1001 IU/L
ALT (72 h, time 3 day): 38 IU/L
AST (72 h, time 3 day): 66.2 IU/L
BUN (72 h, time 3 day): 14.6 mg/dL
CRE (72 h, time 3 day): 0.4 mg/dL
Ca (72 h, time 3 day): 10.7 mg/dL
Cl (72 h, time 3 day): 105 meq/L
DBIL (72 h, time 3 day): 0.098 mg/dL
GLC (72 h, time 3 day): 210.8 mg/dL
IP (72 h, time 3 day): 6.9 mg/dL
K (72 h, time 3 day): 3.6 meq/L
LDH (72 h, time 3 day): 175.8 IU/L
Na (72 h, time 3 day): 142 meq/L
PL (72 h, time 3 day): 162.4 mg/dL
RALB (72 h, time 3 day): 3.6 g/dL
TBIL (72 h, time 3 day): 0.2 mg/dL
TC (72 h, time 3 day): 97.8 mg/dL
TG (72 h, time 3 day): 66.6 mg/dL
TP (72 h, time 3 day): 5.7 g/dL
gamma-GTP (72 h, time 3 day): 1 IU/L
TERMINAL_BW ([…], time 7 day): 244.8 g
TERMINAL_BW ([…], time 14 day): 289.8 g
TERMINAL_BW ([…], time 28 day): 352.3 g
APTT ([…], time 7 day): 16.9 s
Bas ([…], time 7 day): 0%
Eos ([…], time 7 day): 1%
Fbg ([…], time 7 day): 221.4 mg/dL
Hb ([…], time 7 day): 13.6 g/dL
Ht ([…], time 7 day): 40.5%
Lym ([…], time 7 day): 82.2%
MCH ([…], time 7 day): 20.6 pg
MCHC ([…], time 7 day): 33.7%
MCV ([…], time 7 day): 61.2 fL
Mono ([…], time 7 day): 2.6%
Neu ([…], time 7 day): 13.8%
PT ([…], time 7 day): 12.7 s
Plat ([…], time 7 day): 126 x10_4/uL
RBC ([…], time 7 day): 661.8 x10_4/ul
Ret ([…], time 7 day): 4.8%
WBC ([…], time 7 day): 115.5 x10_2/uL
APTT ([…], time 14 day): 20.1 s
Bas ([…], time 14 day): 0%
Eos ([…], time 14 day): 1%
Fbg ([…], time 14 day): 216.8 mg/dL
Hb ([…], time 14 day): 14.2 g/dL
Ht ([…], time 14 day): 41.8%
Lym ([…], time 14 day): 82%
MCH ([…], time 14 day): 20.7 pg
MCHC ([…], time 14 day): 34.1%
MCV ([…], time 14 day): 60.9 fL
Mono ([…], time 14 day): 1.8%
Neu ([…], time 14 day): 14.4%
PT ([…], time 14 day): 12.6 s
Plat ([…], time 14 day): 116.7 x10_4/uL
RBC ([…], time 14 day): 687.8 x10_4/ul
Ret ([…], time 14 day): 4%
WBC ([…], time 14 day): 138.1 x10_2/uL
APTT ([…], time 28 day): 19.2 s
Bas ([…], time 28 day): 0%
Eos ([…], time 28 day): 1%
Fbg ([…], time 28 day): 225 mg/dL
Hb ([…], time 28 day): 15 g/dL
Ht ([…], time 28 day): 42.3%
Lym ([…], time 28 day): 83.8%
MCH ([…], time 28 day): 20.2 pg
MCHC ([…], time 28 day): 35.6%
MCV ([…], time 28 day): 56.9 fL
Mono ([…], time 28 day): 2%
Neu ([…], time 28 day): 12.2%
PT ([…], time 28 day): 12.5 s
Plat ([…], time 28 day): 107.9 x10_4/uL
RBC ([…], time 28 day): 743.2 x10_4/ul
Ret ([…], time 28 day): 2.1%
WBC ([…], time 28 day): 114.3 x10_2/uL
KIDNEY_L ([…], time 7 day): 1 g
KIDNEY_R ([…], time 7 day): 1 g
KIDNEY_TOTAL ([…], time 7 day): 2 g
KIDNEY_L ([…], time 14 day): 1.2 g
KIDNEY_R ([…], time 14 day): 1.1 g
KIDNEY_TOTAL ([…], time 14 day): 2.3 g
KIDNEY_L ([…], time 28 day): 1.3 g
KIDNEY_R ([…], time 28 day): 1.3 g
KIDNEY_TOTAL ([…], time 28 day): 2.5 g
LIVER ([…], time 7 day): 12.8 g
LIVER ([…], time 14 day): 14.8 g
LIVER ([…], time 28 day): 16.8 g
A/G ([…], time 7 day): 1.7
ALP ([…], time 7 day): 753 IU/L
ALT ([…], time 7 day): 36.4 IU/L
AST ([…], time 7 day): 54.4 IU/L
BUN ([…], time 7 day): 15.6 mg/dL
CRE ([…], time 7 day): 0.4 mg/dL
Ca ([…], time 7 day): 10.9 mg/dL
Cl ([…], time 7 day): 103.8 meq/L
DBIL ([…], time 7 day): 0.09 mg/dL
GLC ([…], time 7 day): 215.2 mg/dL
IP ([…], time 7 day): 6.8 mg/dL
K ([…], time 7 day): 3.7 meq/L
LDH ([…], time 7 day): 169.2 IU/L
Na ([…], time 7 day): 140.6 meq/L
PL ([…], time 7 day): 156.2 mg/dL
RALB ([…], time 7 day): 3.7 g/dL
TBIL ([…], time 7 day): 0.1 mg/dL
TC ([…], time 7 day): 88.4 mg/dL
TG ([…], time 7 day): 67 mg/dL
TP ([…], time 7 day): 6 g/dL
gamma-GTP ([…], time 7 day): 0.2 IU/L
A/G ([…], time 14 day): 1.5
ALP ([…], time 14 day): 685.8 IU/L
ALT ([…], time 14 day): 33.2 IU/L
AST ([…], time 14 day): 59.2 IU/L
BUN ([…], time 14 day): 14.4 mg/dL
CRE ([…], time 14 day): 0.5 mg/dL
Ca ([…], time 14 day): 10.6 mg/dL
Cl ([…], time 14 day): 103.8 meq/L
DBIL ([…], time 14 day): 0.086 mg/dL
GLC ([…], time 14 day): 192 mg/dL
IP ([…], time 14 day): 6.2 mg/dL
K ([…], time 14 day): 3.8 meq/L
LDH ([…], time 14 day): 148 IU/L
Na ([…], time 14 day): 141.8 meq/L
PL ([…], time 14 day): 132 mg/dL
RALB ([…], time 14 day): 3.5 g/dL
TBIL ([…], time 14 day): 0.1 mg/dL
TC ([…], time 14 day): 70.6 mg/dL
TG ([…], time 14 day): 58.6 mg/dL
TP ([…], time 14 day): 5.9 g/dL
gamma-GTP ([…], time 14 day): 1 IU/L
A/G ([…], time 28 day): 1.5
ALP ([…], time 28 day): 449.8 IU/L
ALT ([…], time 28 day): 30.6 IU/L
AST ([…], time 28 day): 48.6 IU/L
BUN ([…], time 28 day): 17.4 mg/dL
CRE ([…], time 28 day): 0.5 mg/dL
Ca ([…], time 28 day): 10.5 mg/dL
Cl ([…], time 28 day): 103.8 meq/L
DBIL ([…], time 28 day): 0.078 mg/dL
GLC ([…], time 28 day): 227.2 mg/dL
IP ([…], time 28 day): 6.9 mg/dL
K ([…], time 28 day): 3.5 meq/L
LDH ([…], time 28 day): 124.2 IU/L
Na ([…], time 28 day): 141.8 meq/L
PL ([…], time 28 day): 167.4 mg/dL
RALB ([…], time 28 day): 3.8 g/dL
TBIL ([…], time 28 day): 0.1 mg/dL
TC ([…], time 28 day): 93.2 mg/dL
TG ([…], time 28 day): 54.2 mg/dL
TP ([…], time 28 day): 6.3 g/dL
gamma-GTP ([…], time 28 day): 1.6 IU/L
